Source: patent publication US10329294B2, “Pyrazolopyrimidine inhibitors of IRAK4 activity” (MERCK SHARP & DOHME CORP., priority 2015, dated 2019)
Where a name gives a salt, the structure may show the parent alone. Read-outs that look alike come from different tables or passages of the source.

Molecular target: IRAK4 (Homo sapiens (Human), UniProt Q9NWZ3)
Assay: IRAK4 Kinase Assay
Format: biochemical
Conditions: IMAP fluorescence polarization, 0.5 nM GST tagged IRAK4, 100 μM ATP, 30 minutes at 25° C.

Chain of IRAK4 (Q9NWZ3 whole entry): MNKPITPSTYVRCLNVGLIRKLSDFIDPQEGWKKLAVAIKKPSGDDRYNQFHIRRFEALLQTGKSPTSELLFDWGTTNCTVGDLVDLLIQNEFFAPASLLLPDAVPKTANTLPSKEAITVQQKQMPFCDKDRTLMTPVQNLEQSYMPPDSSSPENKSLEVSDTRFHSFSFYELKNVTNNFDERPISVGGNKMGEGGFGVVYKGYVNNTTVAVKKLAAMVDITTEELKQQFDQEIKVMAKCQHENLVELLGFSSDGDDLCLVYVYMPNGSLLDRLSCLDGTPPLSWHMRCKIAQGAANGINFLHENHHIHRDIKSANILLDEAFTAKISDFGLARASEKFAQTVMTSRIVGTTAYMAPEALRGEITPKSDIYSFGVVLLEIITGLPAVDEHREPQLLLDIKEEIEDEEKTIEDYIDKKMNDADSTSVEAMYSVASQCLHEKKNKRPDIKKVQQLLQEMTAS

SMILES	IC50 (IRAK4 IC50 (nM)) [nM]	IC50 (read-out: IRAK4 IC50) [nM]
CC(C)n1cc(NC(=O)c2cnn3ccc(N[C@@H]4CCCC[C@@H]4O)nc23)c(C(F)(F)F)n1 [Example 52, 5-{[(1R,2S)-2-hydroxycyclohexyl]amino}-N-[1-(1-methylethyl)-3-(trifluoromethyl)-1H-pyrazol-4-yl]pyrazolo[1,5-a]pyrimidine-3-carboxamide]	64	–
CC(C)n1cc(NC(=O)c2cnn3ccc(N4CC5CCC4CN5)nc23)c(C(F)(F)F)n1 (stereo not shown) [Example 53, 5-(2,5-diazabicyclo[2.2.2]oct-2-yl)-N-[1-(1-methylethyl)-3-(trifluoromethyl)-1H-pyrazol-4-yl]pyrazolo[1,5-a]pyrimidine-3-carboxamide]	–	48
CC(C)n1cc(NC(=O)c2cnn3ccc(N[C@@H]4CCCC(F)(F)[C@@H]4N)nc23)c(C(F)(F)F)n1 [Example 56, 5-{[(1R,2R)-2-amino-3,3-difluorocyclohexyl]amino}-N-[1-(1-methylethyl)-3-(trifluoromethyl)-1H-pyrazol-4-yl]pyrazolo[1,5-a]pyrimidine-3-carboxamide trifluoroacetate]	–	626
O=C(Nc1cn(CC(F)(F)F)nc1C(F)(F)F)c1cnn2ccc(N[C@@H]3CCCC[C@@H]3O)nc12 [Example 57, 5-{[(1R,2S)-2-hydroxycyclohexyl]amino}-N-[1-(2,2,2-trifluoroethyl)-3-(trifluoromethyl)-1H-pyrazol-4-yl]pyrazolo[1,5-a]pyrimidine-3-carboxamide trifluoroacetate]	–	320
O=C(Nc1cn(CC(F)(F)F)nc1C(F)(F)F)c1cnn2ccc(N3CC4CCC3CN4)nc12 (stereo not shown) [Example 58, 5-(2,5-diazabicyclo[2.2.2]oct-2-yl)-N-[1-(2,2,2-trifluoroethyl)-3-(trifluoromethyl)-1H-pyrazol-4-yl]pyrazolo[1,5-a]pyrimidine-3-carboxamide trifluoroacetate]	–	267
O=C(Nc1cn(CC(F)F)nc1C(F)(F)F)c1cnn2ccc(N3CCNCC3)nc12 [Example 62, N-[1-(2,2-difluoroethyl)-3-(trifluoromethyl)-1H-pyrazol-4-yl]-5-piperazin-1-ylpyrazolo[1,5-a]pyrimidine-3-carboxamide trifluoroacetate]	–	29
O=C(Nc1cn(CC(F)F)nc1C(F)(F)F)c1cnn2ccc(N[C@@H]3CCCC[C@@H]3O)nc12 [Example 63, N-[1-(2,2-difluoroethyl)-3-(trifluoromethyl)-1H-pyrazol-4-yl]-5-{[(1R,2S)-2-hydroxycyclohexyl]amino} pyrazolo[1,5-a]pyrimidine-3-carboxamide trifluoroacetate]	–	38
O=C(Nc1cn(CC(F)F)nc1C(F)(F)F)c1cnn2ccc(N3CCNCC4(CC4)C3)nc12 [Example 64, 5-(5,8-diazaspiro[2.6]non-5-yl)-N-[1-(2,2-difluoroethyl)-3-(trifluoromethyl)-1H-pyrazol-4-yl]pyrazolo[1,5-a]pyrimidine-3-carboxamide trifluoroacetate]	–	18
O=C(Nc1cn(CC(F)F)nc1C(F)(F)F)c1cnn2ccc(N3CC4CCC3CN4)nc12 (stereo not shown) [Example 65, 5-(2,5-diazabicyclo[2.2.2]oct-2-yl)-N-[1-(2,2-difluoroethyl)-3-(trifluoromethyl)-1H-pyrazol-4-yl]pyrazolo[1,5-a]pyrimidine-3-carboxamide trifluoroacetate]	–	59
N[C@@H]1[C@H](Nc2ccn3ncc(C(=O)Nc4cn(CC(F)F)nc4C(F)(F)F)c3n2)CCCC1(F)F [Example 66, 5-{[(1R,2R)-2-amino-3,3-difluorocyclohexyl]amino}-N-[1-(2,2-difluoroethyl)-3-(trifluoromethyl)-1H-pyrazol-4-yl]pyrazolo[1,5-a]pyrimidine-3-carboxamide trifluoroacetate]	–	244
O=C(Nc1cn(C(F)F)nc1C(F)(F)F)c1cnn2ccc(N3CC4CCC3CN4)nc12 (stereo not shown) [Example 67, 5-(2,5-diazabicyclo[2.2.2]oct-2-yl)-N-[1-(difluoromethyl)-3-(trifluoromethyl)-1H-pyrazol-4-yl]pyrazolo[1,5-a]pyrimidine-3-carboxamide trifluoroacetate]	–	74
O=C(Nc1cn(C(F)F)nc1C(F)(F)F)c1cnn2ccc(N3CCNCC4(CC4)C3)nc12 [Example 68, 5-(5,8-diazaspiro[2.6]non-5-yl)-N-[1-(difluoromethyl)-3-(trifluoromethyl)-1H-pyrazol-4-yl]pyrazolo[1,5-a]pyrimidine-3-carboxamide trifluoroacetate]	–	32
N[C@@H]1[C@H](Nc2ccn3ncc(C(=O)Nc4cn(CC(F)(F)F)nc4C(F)(F)F)c3n2)CCCC1(F)F [Example 69, 5-{[(1R,2R)-2-amino-3,3-difluorocyclohexyl]amino}-N-[1-(2,2,2-trifluoroethyl)-3-(trifluoromethyl)-1H-pyrazol-4-yl]pyrazolo[1,5-a]pyrimidine-3-carboxamide trifluoroacetate]	–	927
O=C(Nc1cn(CC(F)(F)F)nc1C(F)(F)F)c1cnn2ccc(N3CCNCC4(CC4)C3)nc12 [Example 70, 5-(5,8-diazaspiro[2.6]non-5-yl)-N-[1-(2,2,2-trifluoroethyl)-3-(trifluoromethyl)-1H-pyrazol-4-yl]pyrazolo[1,5-a]pyrimidine-3-carboxamide trifluoroacetate]	–	51
N[C@@H]1[C@H](Nc2ccn3ncc(C(=O)Nc4cn(C(F)F)nc4C(F)(F)F)c3n2)CCCC1(F)F [Example 71, 5-{[(1R,2R)-2-amino-3,3-difluorocyclohexyl]amino}-N-[1-(difluoromethyl)-3-(trifluoromethyl)-1H-pyrazol-4-yl]pyrazolo[1,5-a]pyrimidine-3-carboxamide trifluoroacetate]	–	328
O=C(Nc1cn(C(F)F)nc1C(F)(F)F)c1cnn2ccc(N[C@@H]3CCCC[C@@H]3O)nc12 [Example 72, N-[1-(difluoromethyl)-3-(trifluoromethyl)-1H-pyrazol-4-yl]-5-{[(1R,2S)-2-hydroxycyclohexyl]amino} pyrazolo[1,5-a]pyrimidine-3-carboxamide trifluoroacetate]	–	141
Cn1cc(NC(=O)c2cnn3ccc(N4CC5CCC4CCN5)nc23)c(C(F)(F)F)n1 (stereo not shown) [Example 73, 5-(2,6-diazabicyclo[3.2.2]non-6-yl)-N-[1-methyl-3-(trifluoromethyl)-1H-pyrazol-4-yl]pyrazolo[1,5-a]pyrimidine-3-carboxamide trifluoroacetate]	–	144
Cn1cc(NC(=O)c2cnn3ccc(N4CC5CC4CCN5)nc23)c(C(F)(F)F)n1 (stereo not shown) [Example 74, 5-(2,6-diazabicyclo[3.2.1]oct-6-yl)-N-[1-methyl-3-(trifluoromethyl)-1H-pyrazol-4-yl]pyrazolo[1,5-a]pyrimidine-3-carboxamide trifluoroacetate]	–	41
N[C@H]1CCCC[C@H]1Nc1ccn2ncc(C(=O)Nc3cscc3Br)c2n1 [Example 76, 5-{[(1R,2S)-2-aminocyclohexyl]amino}-N-(4-bromothiophen-3-yl)pyrazolo[1,5-a]pyrimidine-3-carboxamide trifluoroacetate]	–	0.9
CC1CN(c2ccn3ncc(C(=O)Nc4cn(C)nc4C(F)(F)F)c3n2)C(C)CN1 (stereo not shown) [Example 79, 5-(2,5-dimethylpiperazin-1-yl)-N-[1-methyl-3-(trifluoromethyl)-1H-pyrazol-4-yl]pyrazolo[1,5-a]pyrimidine-3-carboxamide trifluoroacetate]	–	62
Cn1cc(NC(=O)c2cnn3ccc(N4CC5CNC(COC5)C4)nc23)c(C(F)(F)F)n1 (stereo not shown) [Example 80, N-[1-methyl-3-(trifluoromethyl)-1H-pyrazol-4-yl]-5-(3-oxa-7,9-diazabicyclo[3.3.2]dec-7-yl)pyrazolo[1,5-a]pyrimidine-3-carboxamide trifluoroacetate]	–	29
Cn1cc(NC(=O)c2cnn3ccc(N4CC5CCC(C4)N5)nc23)c(C(F)(F)F)n1 [Example 81, 5-(3,8-diazabicyclo[3.2.1]oct-3-yl)-N-[1-methyl-3-(trifluoromethyl)-1H-pyrazol-4-yl]pyrazolo[1,5-a]pyrimidine-3-carboxamide trifluoroacetate]	–	9
Cn1cc(NC(=O)c2cnn3ccc(N4CC5CNCC4C5)nc23)c(C(F)(F)F)n1 (stereo not shown) [Example 82, 5-(3,6-diazabicyclo[3.2.1]oct-6-yl)-N-[1-methyl-3-(trifluoromethyl)-1H-pyrazol-4-yl]pyrazolo[1,5-a]pyrimidine-3-carboxamide trifluoroacetate]	–	114
Cn1cc(NC(=O)c2cnn3ccc(N4CCNCC5(CC5)C4)nc23)c(C(F)F)n1 [Example 86, 5-(5,8-diazaspiro[2.6]non-5-yl)-N-[3-(difluoromethyl)-1-methyl-1H-pyrazol-4-yl]pyrazolo[1,5-a]pyrimidine-3-carboxamide trifluoroacetate]	–	2
Cn1cc(NC(=O)c2cnn3ccc(N4CCCNCC4)nc23)c(C(F)F)n1 [Example 87, 5-(1,4-diazepan-1-yl)-N-[3-(difluoromethyl)-1-methyl-1H-pyrazol-4-yl]pyrazolo[1,5-a]pyrimidine-3-carboxamide trifluoroacetate]	–	4
Cn1cc(NC(=O)c2cnn3ccc(N4CCC[C@@H](N)C4)nc23)c(C(F)F)n1 [Example 90, 5-[(3R)-3-aminopiperidin-1-yl]-N-[3-(difluoromethyl)-1-methyl-1H-pyrazol-4-yl]pyrazolo[1,5-a]pyrimidine-3-carboxamide trifluoroacetate]	–	0.5
Cn1cc(NC(=O)c2cnn3ccc(N[C@@H]4CCCNC4)nc23)c(C(F)F)n1 [Example 91, N-[3-(difluoromethyl)-1-methyl-1H-pyrazol-4-yl]-5-[(3R)-piperidin-3-ylamino]pyrazolo[1,5-a]pyrimidine-3-carboxamide trifluoroacetate]	–	0.5
Cn1cc(NC(=O)c2cnn3ccc(N4[C@@H]5CC[C@H]4[C@@H]4CC[C@H]5N4)nc23)c(C(F)(F)F)n1 [Example 92, 5-[9,10-diazatricyclo[4.2.1.1~2,5~]dec-9-yl]-N-]1-methyl-3-(trifluoromethyl)-1H-pyrazol-4-yl]pyrazolo[1,5-a]pyrimidine-3-carboxamide trifluoroacetate]	–	115
